ChEMBL document CHEMBL1155636, “Dihydrophenanthrenes from Spiranthes sinensis” (J Nat Prod, 2000)
The source made the active and inactive calls. The calls are words filed in the database; no cut-off is given here.

Columns and labels:
Type in all cases: cell-based
MS-G2 [1] = assay: Inhibition of Hepatitis B virus E antigen activity in human MS-G2 cells at 5 ug/mL
MS-G2 [2] = assay: Inhibition of Hepatitis B virus E antigen activity in human MS-G2 cells at 10 ug/mL
[3] = Cytotoxicity against human MS-G2 cells at 20 ug/mL

Compound	Activity (MS-G2 [1])	Activity (MS-G2 [2])	Activity [3]
COc1cc(O)c2c(c1Cc1ccc(O)cc1)CCc1c-2ccc2c1CC(C(C)(C)O)O2 (stereo not drawn) [SINENSOL E]	inactive	inactive	Active
COc1cc(O)c(Cc2ccc(O)cc2)c2c1-c1ccc(O)c(CC=C(C)C)c1CC2 [SINENSOL C]	inactive	inactive	Active
COc1cc(O)c2c(c1Cc1ccc(O)cc1)CCc1c-2ccc2c1C=CC(C)(C)O2 [SINENSOL D]	inactive	inactive	Active
COc1cc(OC)c2c(c1Cc1ccc(O)cc1)CCc1cc(O)ccc1-2 [SINENSOL A]	inactive	inactive	Active
COc1cc(OC)c2c(c1Cc1ccc(O)cc1)CCc1c-2ccc(O)c1CC=C(C)C [SINENSOL B]	inactive	inactive	Active
COc1cc(O)c2c(c1Cc1ccc(O)cc1)CCc1c-2cc(Cc2ccc(O)cc2)c(O)c1CC=C(C)C [SINENSOL F]	inactive	inactive	Active
